From PMC3983375 (Journal of Medicinal Chemistry, 2014)

Key:
[1] = mouse
[2] = molecular target: DEN1 (Homo sapiens, UniProt Q96LD8); test: biochemical
[3] = molecular target: cathepsin K (Homo sapiens, UniProt P43235); test: biochemical
[4] = molecular target: UCHL1 (Homo sapiens, UniProt P09936); test: biochemical
[5] = molecular target: caspase 3 (Homo sapiens, UniProt P42574); test: biochemical
[6] = molecular target: USP2 (Homo sapiens, UniProt O75604); test: biochemical
[7] = molecular target: USP7 (Homo sapiens, UniProt Q93009); test: biochemical
USP7, sequence (Q93009 whole entry): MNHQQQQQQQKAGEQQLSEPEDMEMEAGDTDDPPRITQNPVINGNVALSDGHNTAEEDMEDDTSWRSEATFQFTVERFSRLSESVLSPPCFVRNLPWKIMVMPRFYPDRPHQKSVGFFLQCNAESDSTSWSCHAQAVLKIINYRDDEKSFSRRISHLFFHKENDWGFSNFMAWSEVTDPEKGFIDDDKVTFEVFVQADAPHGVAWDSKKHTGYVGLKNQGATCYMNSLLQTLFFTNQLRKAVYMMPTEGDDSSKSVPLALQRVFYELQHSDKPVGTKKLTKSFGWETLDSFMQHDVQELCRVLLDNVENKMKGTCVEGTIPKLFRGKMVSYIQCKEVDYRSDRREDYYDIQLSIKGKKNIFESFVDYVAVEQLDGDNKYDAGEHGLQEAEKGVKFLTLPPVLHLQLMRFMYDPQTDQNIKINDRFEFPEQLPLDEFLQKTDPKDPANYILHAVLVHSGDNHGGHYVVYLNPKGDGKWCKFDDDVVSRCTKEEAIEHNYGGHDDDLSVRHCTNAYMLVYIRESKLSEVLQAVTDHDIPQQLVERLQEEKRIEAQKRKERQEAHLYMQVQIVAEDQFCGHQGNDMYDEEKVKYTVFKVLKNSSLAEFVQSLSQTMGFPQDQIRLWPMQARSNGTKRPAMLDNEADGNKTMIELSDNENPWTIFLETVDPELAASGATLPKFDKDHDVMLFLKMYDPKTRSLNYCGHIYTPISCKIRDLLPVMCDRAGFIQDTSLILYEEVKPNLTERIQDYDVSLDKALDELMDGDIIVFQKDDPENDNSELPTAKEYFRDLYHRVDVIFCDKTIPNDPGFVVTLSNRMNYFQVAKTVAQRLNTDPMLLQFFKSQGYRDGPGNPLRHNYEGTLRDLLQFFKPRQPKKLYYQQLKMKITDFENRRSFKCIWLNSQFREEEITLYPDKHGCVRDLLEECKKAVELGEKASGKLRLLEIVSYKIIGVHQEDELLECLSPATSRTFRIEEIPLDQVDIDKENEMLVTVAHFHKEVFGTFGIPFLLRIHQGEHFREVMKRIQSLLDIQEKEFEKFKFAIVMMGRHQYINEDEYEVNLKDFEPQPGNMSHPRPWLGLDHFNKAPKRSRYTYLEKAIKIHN

[8] = system: SARS-CoV infected Vero E6 cells; format: cell-based
[9] = molecular target: USP20 (Homo sapiens, UniProt Q9Y2K6); test: biochemical
USP20, sequence (Q9Y2K6 whole entry): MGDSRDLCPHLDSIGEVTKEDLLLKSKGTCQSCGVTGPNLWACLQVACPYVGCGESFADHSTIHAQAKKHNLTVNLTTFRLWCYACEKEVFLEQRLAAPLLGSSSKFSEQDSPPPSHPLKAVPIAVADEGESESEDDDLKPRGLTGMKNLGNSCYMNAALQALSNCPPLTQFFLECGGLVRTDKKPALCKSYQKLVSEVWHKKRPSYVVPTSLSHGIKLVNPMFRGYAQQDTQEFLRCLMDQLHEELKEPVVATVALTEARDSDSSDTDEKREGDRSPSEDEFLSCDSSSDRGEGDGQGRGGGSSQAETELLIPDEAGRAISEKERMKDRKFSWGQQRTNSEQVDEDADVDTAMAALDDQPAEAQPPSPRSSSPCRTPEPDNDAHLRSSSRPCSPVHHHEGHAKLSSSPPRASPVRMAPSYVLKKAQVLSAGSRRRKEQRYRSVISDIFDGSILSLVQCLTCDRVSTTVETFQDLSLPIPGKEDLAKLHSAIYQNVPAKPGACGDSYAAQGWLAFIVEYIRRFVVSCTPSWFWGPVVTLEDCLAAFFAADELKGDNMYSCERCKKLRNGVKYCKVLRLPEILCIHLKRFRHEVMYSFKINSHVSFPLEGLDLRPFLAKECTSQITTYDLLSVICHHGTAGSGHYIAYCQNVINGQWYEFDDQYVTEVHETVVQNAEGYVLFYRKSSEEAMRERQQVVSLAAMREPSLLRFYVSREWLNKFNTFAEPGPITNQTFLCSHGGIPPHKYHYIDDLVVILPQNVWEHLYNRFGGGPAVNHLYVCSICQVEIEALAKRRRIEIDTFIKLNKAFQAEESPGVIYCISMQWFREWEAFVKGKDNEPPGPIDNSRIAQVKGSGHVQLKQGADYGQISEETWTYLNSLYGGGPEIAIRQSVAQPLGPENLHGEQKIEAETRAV

[10] = system: SARS-CoV infected Vero E6 cells; conditions: read-out: EC50 (SARS-CoV antiviral); cited from earlier work

DEN1, sequence (Q96LD8 whole entry): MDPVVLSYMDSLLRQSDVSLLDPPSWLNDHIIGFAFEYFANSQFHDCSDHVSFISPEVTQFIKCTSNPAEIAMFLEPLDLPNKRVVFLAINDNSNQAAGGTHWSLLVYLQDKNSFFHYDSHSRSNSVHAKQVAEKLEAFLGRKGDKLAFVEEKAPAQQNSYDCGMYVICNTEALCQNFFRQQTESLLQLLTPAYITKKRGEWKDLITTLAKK
cathepsin K, sequence (P43235 115-329): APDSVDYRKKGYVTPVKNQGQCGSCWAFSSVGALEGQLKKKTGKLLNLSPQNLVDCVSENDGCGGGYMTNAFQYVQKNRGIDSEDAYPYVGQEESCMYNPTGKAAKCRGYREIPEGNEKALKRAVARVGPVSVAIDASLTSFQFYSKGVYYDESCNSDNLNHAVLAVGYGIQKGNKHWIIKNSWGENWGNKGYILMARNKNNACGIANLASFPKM
caspase 3, sequence (P42574 29-175): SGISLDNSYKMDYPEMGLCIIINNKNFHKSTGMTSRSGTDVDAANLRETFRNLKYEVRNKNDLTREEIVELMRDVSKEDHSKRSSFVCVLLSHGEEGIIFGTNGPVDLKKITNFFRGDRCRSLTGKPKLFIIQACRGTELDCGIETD
caspase 3, sequence (P42574 176-277): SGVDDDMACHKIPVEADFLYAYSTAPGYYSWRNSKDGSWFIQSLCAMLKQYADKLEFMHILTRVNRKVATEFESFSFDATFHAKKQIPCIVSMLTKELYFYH
UCHL1, sequence (P09936 whole entry): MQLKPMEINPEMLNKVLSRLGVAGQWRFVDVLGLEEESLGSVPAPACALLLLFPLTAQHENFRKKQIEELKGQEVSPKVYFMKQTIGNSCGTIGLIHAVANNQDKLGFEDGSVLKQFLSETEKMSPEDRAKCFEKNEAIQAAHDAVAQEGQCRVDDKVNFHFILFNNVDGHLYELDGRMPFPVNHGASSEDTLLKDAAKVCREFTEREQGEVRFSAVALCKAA
USP2, sequence (O75604 whole entry): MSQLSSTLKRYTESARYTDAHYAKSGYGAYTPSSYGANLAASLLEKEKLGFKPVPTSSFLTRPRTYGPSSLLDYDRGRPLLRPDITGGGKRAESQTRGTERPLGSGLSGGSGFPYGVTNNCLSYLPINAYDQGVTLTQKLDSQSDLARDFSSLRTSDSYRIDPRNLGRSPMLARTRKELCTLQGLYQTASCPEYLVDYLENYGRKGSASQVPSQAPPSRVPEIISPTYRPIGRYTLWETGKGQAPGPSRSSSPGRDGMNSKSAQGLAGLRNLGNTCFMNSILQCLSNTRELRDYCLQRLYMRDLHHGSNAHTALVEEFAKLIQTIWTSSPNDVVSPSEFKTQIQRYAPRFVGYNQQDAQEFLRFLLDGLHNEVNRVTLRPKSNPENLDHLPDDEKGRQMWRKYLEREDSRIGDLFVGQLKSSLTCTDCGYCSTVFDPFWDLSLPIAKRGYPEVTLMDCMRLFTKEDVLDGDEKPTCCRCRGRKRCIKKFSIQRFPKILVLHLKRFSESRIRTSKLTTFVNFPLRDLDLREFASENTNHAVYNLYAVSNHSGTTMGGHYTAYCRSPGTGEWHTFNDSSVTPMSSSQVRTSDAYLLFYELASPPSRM

With `CC(=O)Nc1cccc(CNC(=O)C2CCN([C@H](C)c3cccc4ccccc34)CC2)c1` [3e, (R)-N-(3-Acetamidobenzyl)-1-(1-(naphthalen-1-yl)ethyl)piperidine-4-carboxamide] the “half-life longer than that of 15g” value [1] was 4-5 fold, the IC50 [2] was greater than 100 µM and the IC50 [3] was greater than 100 µM. For the same compound, the IC50 [4] was greater than 100 µM and the IC50 [5] was greater than 100 µM.
Work on `C[C@H](c1cccc2ccccc12)N1CCC(C(=O)NCc2ccc(F)cc2)CC1` [3j, (R)-N-(4-Fluorobenzyl)-1-(1-(naphthalen-1-yl)ethyl)piperidine-4-carboxamide] yielded an IC50 [2] greater than 100 µM, an IC50 [6] greater than 100 µM and an IC50 [3] greater than 100 µM. For the same compound, the IC50 [4] was greater than 100 µM, the IC50 [7] was greater than 100 µM and the IC50 [5] was greater than 100 µM.
With `C[C@H](c1cccc2ccccc12)N1CCC(C(=O)NCc2cccc(F)c2)CC1` [3k, (R)-N-(3-Fluorobenzyl)-1-(1-(naphthalen-1-yl)ethyl)piperidine-4-carboxamide] the IC50 [2] was greater than 100 µM, the IC50 [6] was greater than 100 µM and the IC50 [3] was greater than 100 µM. For the same compound, the “improvement in antiviral activity compared to 15g” value [8] was 2 fold, the IC50 [4] was greater than 100 µM and the IC50 [7] was greater than 100 µM. The IC50 [5] was greater than 100 µM.
For `COc1cc(CNC(=O)C2CCN([C@H](C)c3cccc4ccccc34)CC2)ccn1` [5c, (R)-N-((2-Methoxypyridin-4-yl)methyl)-1-(1-(naphthalen-1-yl)ethyl)piperidine-4-carboxamide], the “half-life longer than that of 15g” value [1] was 4-5 fold.
For `C[C@H](c1cccc2ccccc12)N1CCC(C(=O)NCc2ccc3c(c2)OCO3)CC1` [15g, reference compound], the IC50 [9] is given as greater than 100 µM, the IC50 [2] is given as greater than 100 µM and the EC50 [10] is given as 9.1 µM. It also gave an IC50 [6] greater than 100 µM, an IC50 [3] greater than 100 µM and an IC50 [4] greater than 100 µM. The IC50 [7] was greater than 100 µM and the IC50 [5] was greater than 100 µM.
